Measurements published in patent US10071108B2, “Methods and pharmaceutical compositions for the treatment of hepatitis b virus infection” (INSERM (INSTITUT NATIONAL DE LA SANTÉ ET DE LA RECHERCHE …, priority 2013, dated 2018).
“Also recorded” adds a separate entry of the source.

What was measured:
[1] = test system: HBV; assay: Secretion of HBsAg in supernatant of HBV infected HepaRG cells; format: cell-based, hepatitis B virus; conditions: for effect on HBsAg secretion in supernatant: treated days 4, 7 and 11 post infection, supernatant day 14
From the text: Differentiated HepaRG cells were infected with HBV (100 geq/cell for 24 hr), then treated 3 successive times (days 4, 7 and 11 post infection) with FXR modulators at indicated concentrations in μM. Cell supernatants were collected 14 days post infection for quantification of HBsAg (Architec Abbott).
(§1) The HepaRG line derived from a human cellularhepato carcinoma can differentiate and regain many phenotypic traits of hepatocytes after 4 weeks of culture under defined conditions (Hantz O. et al., 2009, J Gen Virol, 90:127-135). After differentiation, these cells are susceptible to infection at high MOI of HBV virions produced by HepG2.2.15 line. Under these conditions viral production can be observed in the second week post infection. This system allows the study of most steps of the viral replication cycle, including penetration into the cell, translocation of the viral genome into the nucleus, the repair and synthesis of the cccDNA, transcription of pregenomic and viral mRNAs as well as later stages of the replication cycle with the synthesis of viral proteins, the assembly and secretion of infectious virions and the secretion of the viral proteins HBs and HBe.
(§2) The HepaRG system thus allows the monitoring of the secretion of HBsAg and HBeAg and virion incorporated DNA into the cell culture supernatant after infection with HBV infectious virion stocks prepared from the HepG2.2.15 cell line. This system also allows the monitoring of the synthesis of pregenomic and viral mRNAs as well as cytoplasmic replication intermediates and cccDNA. The effects of molecules on cell physiology and cell differentiated functions were explored, including the quantification of hepatic markers such as albumin and apolipoprotein B. The effects of the compounds on the cellular bile acid pathway were monitored by analysis and quantification of the FXR mRNA as well as the SHP and apoA1 encoding mRNAs the expression of which is under the control of FXR

[2] = test system: HBV; assay: Secretion of HBeAg in supernatant of HBV infected HepaRG cells; format: cell-based, hepatitis B virus; conditions: for effect on HBeAg secretion in supernatant: HBV infected HepaRG, treated days 4, 7 and 11 post infection, supernatant day 14
From the text: (§3) Cell supernatants were collected 14 days post infection for quantification of HBsAg, HBeAg (Architec Abbott) or HBV DNA by quantitative PCR using rcDNA primers (n=3±SEM). FIG. 2A—Both FXR agonists, GW4064 and 6ECDCA, inhibit the secretion of HBsAg and HBeAg in the supernatant in a dose-dependent manner whereas UDCA and 052EDL133 have no effect on the antigen secretion. FIG. 2B—Both FXR agonists, GW4064 and 6ECDCA, inhibit the secretion of infectious HBV DNA positive viral particles in the supernatant in a dose-dependent manner. […] FIG. 2C—The FXR agonist PXL007 represses HBsAg, HBeAg and HBV DNA in a dose-dependent manner.
as §1, §2

[3] = test system: HBV; assay: Secretion of HBV DNA in supernatant of HBV infected HepaRG cells (quantitative PCR); format: cell-based, hepatitis B virus; conditions: for effect on secretion of HBV DNA (virions) in supernatant: supernatant day 14, quantitative PCR
From the text: as §3
Differentiated HepaRG cells were infected and treated as described in FIG. 1 legend. Cell supernatants were collected 14 days post infection. (FIG. 8A) Quantification of HBsAg and HBeAg secretion. (FIG. 8B) Quantification of secreted infectious particles by DNA extraction and quantification by qPCR.
as §1, §2

[4] = test system: HBV; assay: Expression of HBV core protein (HBc) in infected HepaRG cells, immunofluorescence; format: cell-based, hepatitis B virus; conditions: fixed day 14 post infection, anti-HBc immunofluorescence
Description: Differentiated HepaRG cells grown on coverslips were infected and treated as described in FIG. 1 legend (n=3±SEM). Cells were fixed on day 14 post infection and immunocytochemistry using anti-HBc antibody was carried out.

[5] = test system: HBV; assay: HBV pregenomic/precore mRNA in infected HepaRG cells (qRT-PCR, Northern blot); format: cell-based, hepatitis B virus
From the text: Differentiated HepaRG cells were infected and treated as described in FIG. 1 legend. Cells were lysed and RNA was extracted, then either reverse transcribed into cDNA for quantitative PCR (qRT-PCR) (FIG. 4A) or used in Northern Blot experiment (FIG. 4B). The same experiment was repeated and DNA was extracted. Following plasmid-safe DNase treatment, cccDNA expression was quantified by qPCR experiment using specific HBV cccDNA primers and TaqMan probe (n=3±SEM) (FIG. 4C). cccDNA quantification was normalized to the number of βglobin gene. The expression levels of HBV pregenomic gene were quantified, as well as 3 housekeeping genes for normalization (n=3±SEM). […]
as §2, with “This system also allows the monitoring of the synthesis of pregenomic and viral mRNAs as well as cytoplasmic replication intermediates and cccDNA.” left out

[6] = test system: FXRα; assay: FXR mRNA expression in HBV infected HepaRG cells (qPCR); format: cell-based, human; conditions: 10 days treatment
From the text: (§4) Differentiated HepaRG cells were infected and treated as described in FIG. 1 legend. Cells were lysed and RNA was extracted, then reverse transcribed into cDNA for qPCR. The expression levels of 3 genes of interest were quantified: FXRα, SHP and APOA1, as well as 3 housekeeping genes for normalization (n=3±SEM). FXR agonists, GW4064 and 6ECDCA, inhibit the expression of FXR mRNA in a dose-dependent manner. SHP and APOA1 are two genes under the regulation of FXR; SHP is induced by FXR while APOA1 is repressed. Here, SHP mRNA expression increases with GW4064 and 6ECDCA treatments, while APOA1 mRNA expression decreases.
as §2

[7] = test system: SHP; assay: SHP mRNA expression in HBV infected HepaRG cells (qPCR); format: cell-based, human; conditions: 10 days treatment
From the text: as §4, §2

[8] = test system: APOA1; assay: APOA1 mRNA expression in HBV infected HepaRG cells (qPCR); format: cell-based, human; conditions: 10 days treatment
From the text: as §4, §2

[9] = target: T1, FXR (Homo sapiens, UniProt Q96RI1); assay: Reporter gene under control of the HBV Enh2/core promoter region (two FXR response elements) in Huh-7 cell line; format: cell-based; conditions: data not shown
T1 construct: host or cells: Huh-7
T1 sequence (Q96RI1 1-486): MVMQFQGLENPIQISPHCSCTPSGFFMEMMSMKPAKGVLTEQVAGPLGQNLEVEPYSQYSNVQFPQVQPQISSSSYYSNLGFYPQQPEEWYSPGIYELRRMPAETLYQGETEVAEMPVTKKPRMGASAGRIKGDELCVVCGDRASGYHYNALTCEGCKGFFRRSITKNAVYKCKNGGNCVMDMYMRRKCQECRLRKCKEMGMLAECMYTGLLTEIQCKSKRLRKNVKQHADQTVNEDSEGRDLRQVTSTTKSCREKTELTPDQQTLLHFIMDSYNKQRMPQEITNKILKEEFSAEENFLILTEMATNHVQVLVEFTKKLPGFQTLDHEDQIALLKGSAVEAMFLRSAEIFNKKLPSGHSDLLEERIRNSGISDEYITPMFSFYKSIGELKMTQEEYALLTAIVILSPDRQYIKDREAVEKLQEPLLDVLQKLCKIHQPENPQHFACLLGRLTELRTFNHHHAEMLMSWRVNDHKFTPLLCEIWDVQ
From the text: A panel of molecules not previously described and original or reference modulators of FXR activity were first tested on the expression of a reporter gene under the control of the HBV Enh2/core promoter region that contains two FXR response elements in the Huh-7 cell line as described in Ramière C, et al., 2008, J Virol; 82: 10832-10840. Molecules were then classified as FXR agonists or antagonists on the basis respectively of the expression increase or decrease of the reporter gene under the transcription control of FXR. […] Thus some molecules decreased the production of HBsAg in a dose-dependent manner. If the active molecules are classified by their antagonist, agonist or agonist “partial” by the screening test in Huh-7 cell with the reporter gene construct, it appears, against previous odds, that the inhibitory effect on the production of HBsAg grew with the tendency of the molecule to be a potent FXR agonist.

[10] = CsA during infection, then FXR agonist

classification as FXR agonist or antagonist by reporter gene expression [9]	Structure (SMILES)	effect on HBsAg secretion in supernatant ([1]; HBV infected HepaRG)	effect on HBeAg secretion in supernatant [2]	effect on secretion of HBV DNA (virions) in supernatant [3]	further results
–	CC(C)c1onc(-c2c(Cl)cccc2Cl)c1COc1ccc(/C=C/c2cccc(C(=O)O)c2)c(Cl)c1 [GW4064]	inhibit; also recorded: strong and dose dependent inhibitory effect; also recorded: dose dependent and strong inhibitory effect	inhibit; also recorded: dose dependent and strong inhibitory effect	inhibit	HBsAg secretion, FXR agonist treatment of cells infected in presence of cyclosporin A [1, 10]: further reduced; inhibition of HBsAg secretion ([1]; at 10 μM, HBV infected HepaRG): around 70%; HBeAg secretion, FXR agonist treatment of cells infected in presence of cyclosporin A [2, 10]: further reduced; expression of HBc in infected cells [4]: drastically reduce; also recorded: strongly inhibited; expression of HBV pregenomic/precore mRNA [5]: inhibit; FXR mRNA expression [6]: inhibit; also recorded: strongly repressed; SHP mRNA expression [7]: increased; APOA1 mRNA expression [8]: decreased
–	O=C(O)c1cc2c(Cl)c(N3CCN(S(=O)(=O)c4c(Cl)cccc4Cl)CC3)ccc2o1 [PXL007]	represses; also recorded: strongly inhibited	represses; also recorded: strongly inhibited	represses; also recorded: strongly inhibited	–
Partial agonists	O=C(O)c1cc2c(Br)c(N3CCC(NS(=O)(=O)c4c(Cl)cccc4Cl)CC3)ccc2o1 [PXL0743, 4-Bromo-5-[4-(2,6-dichloro-benzenesulfonylamino)-piperidin-1-yl]-benzofuran-2-carboxylic acid]	intermediate profile of inhibition	–	–	–
Partial agonists	O=C(O)c1cc2c(Br)c(N3CCCN(S(=O)(=O)c4ccccc4Cl)CC3)ccc2o1 [PXL0914, 4-Bromo-5-[4-(2-chloro-benzenesulfonyl)-[1,4]diazepan-1-yl]-benzofuran-2-carboxylic acid]	intermediate profile of inhibition	–	–	–
Partial agonists	Cc1c(N2CCN(C(=O)c3c(Cl)cccc3Cl)CC2)ccc2oc(C(=O)O)cc12 [PXL0924, 5-[4-(2,6-Dichloro-benzoyl)-piperazin-1-yl]-4-methyl-benzofuran-2-carboxylic acid]	intermediate profile of inhibition	–	–	–
–	C[C@H](CCC(=O)O)[C@H]1CC[C@H]2[C@@H]3[C@@H](O)C[C@@H]4C[C@H](O)CC[C@]4(C)[C@H]3CC[C@]12C [UDCA, ursodesoxycholic acid]	no effect	no effect	no or limited effect; also recorded: did not modify	effect on HBsAg secretion in supernatant ([1]; HBV infected HepaRG, listed as ursodeoxycholate): did not inhibit; effect on HBeAg secretion in supernatant ([2]; listed as ursodeoxycholate): did not inhibit; expression of HBc in infected cells [4]: do not appear to modify; also recorded: did not significantly modify
–	Nc1ccn([C@@H]2CS[C@H](CO)O2)c(=O)n1 [lamivudine]	–	–	–	reduction of viral DNA secreted in supernatant ([3]; at 10 μM): 97%
